According to the NIST ThermoML archive (doi:10.1021/je700260f):
Numbers after ± are expanded uncertainties.

Settings: 333.16 K, Liquid, Vibrating tube method

FC(C(F)(F)F)C(F)(F)F [1,1,1,2,3,3,3-heptafluoropropane]
Settings	mass density [kg/m3]
12443 kPa	1344.2 ± 1.5
12466 kPa	1344.3 ± 1.5
12886 kPa	1347.5 ± 1.5
12914 kPa	1347.5 ± 1.5
12942 kPa	1347.8 ± 1.5
12966 kPa	1347.9 ± 1.5
12994 kPa	1348.2 ± 1.5
13023 kPa	1348.2 ± 1.5
13053 kPa	1348.6 ± 1.5
13082 kPa	1348.9 ± 1.5
13115 kPa	1349.1 ± 1.5
13140 kPa	1349.1 ± 1.5
13164 kPa	1349.4 ± 1.5
13196 kPa	1349.7 ± 1.5
13220 kPa	1349.7 ± 1.5
13244 kPa	1349.9 ± 1.5
13272 kPa	1350.2 ± 1.5
13304 kPa	1350.5 ± 1.5
13324 kPa	1350.5 ± 1.5
13344 kPa	1350.6 ± 1.5
13368 kPa	1350.9 ± 1.5
13394 kPa	1351.1 ± 1.5
13432 kPa	1351.2 ± 1.5
13461 kPa	1351.4 ± 1.5
13494 kPa	1351.7 ± 1.5
13518 kPa	1351.9 ± 1.5
13633 kPa	1352.7 ± 1.5
13666 kPa	1352.9 ± 1.5
13690 kPa	1353 ± 1.5
13724 kPa	1353.1 ± 1.5
13921 kPa	1354.7 ± 1.5
13954 kPa	1354.9 ± 1.5
13991 kPa	1355.1 ± 1.5
14017 kPa	1355.3 ± 1.5
14050 kPa	1355.5 ± 1.5
14075 kPa	1355.8 ± 1.5
14106 kPa	1355.9 ± 1.5
14140 kPa	1356.2 ± 1.5
14828 kPa	1360.7 ± 1.5
14853 kPa	1360.9 ± 1.5
14892 kPa	1361.2 ± 1.5
14922 kPa	1361.4 ± 1.5
14953 kPa	1361.5 ± 1.5
14979 kPa	1361.7 ± 1.5
15001 kPa	1361.9 ± 1.5
15034 kPa	1362.1 ± 1.5
15054 kPa	1362.3 ± 1.5
15081 kPa	1362.5 ± 1.5
15117 kPa	1362.6 ± 1.5
15153 kPa	1362.8 ± 1.5
15179 kPa	1363 ± 1.5
15260 kPa	1363.6 ± 1.5
15320 kPa	1364 ± 1.5
15346 kPa	1364.2 ± 1.5
15370 kPa	1364.4 ± 1.5
15404 kPa	1364.4 ± 1.5
15436 kPa	1364.7 ± 1.5
15464 kPa	1364.9 ± 1.5
15500 kPa	1365.2 ± 1.5
15533 kPa	1365.2 ± 1.5
15561 kPa	1365.5 ± 1.5
15593 kPa	1365.8 ± 1.5
15630 kPa	1366 ± 1.5
15658 kPa	1366.2 ± 1.5
15689 kPa	1366.4 ± 1.5
15953 kPa	1368 ± 1.5
15985 kPa	1368.1 ± 1.5
16013 kPa	1368.3 ± 1.5
16049 kPa	1368.5 ± 1.6
16085 kPa	1368.9 ± 1.6
16105 kPa	1369.1 ± 1.6
16141 kPa	1369.2 ± 1.6
16169 kPa	1369.4 ± 1.6
16193 kPa	1369.6 ± 1.6
16223 kPa	1369.6 ± 1.6
16248 kPa	1370 ± 1.6
16281 kPa	1370.1 ± 1.6
16314 kPa	1370.3 ± 1.6
16339 kPa	1370.4 ± 1.6
16363 kPa	1370.5 ± 1.6
16388 kPa	1370.7 ± 1.6
16416 kPa	1370.9 ± 1.6
16540 kPa	1371.7 ± 1.6
16572 kPa	1371.9 ± 1.6
16600 kPa	1372 ± 1.6
16655 kPa	1372.4 ± 1.6
16788 kPa	1373.2 ± 1.6
16821 kPa	1373.3 ± 1.6
16850 kPa	1373.5 ± 1.6
16876 kPa	1373.7 ± 1.6
16909 kPa	1373.8 ± 1.6
16937 kPa	1374.2 ± 1.6
16964 kPa	1374.2 ± 1.6
16992 kPa	1374.4 ± 1.6
17013 kPa	1374.5 ± 1.6
17038 kPa	1374.7 ± 1.6
17063 kPa	1374.9 ± 1.6
17088 kPa	1374.9 ± 1.6
17109 kPa	1375.2 ± 1.6
17137 kPa	1375.3 ± 1.6
17162 kPa	1375.4 ± 1.6
17189 kPa	1375.7 ± 1.6
17215 kPa	1375.7 ± 1.6
